Measured values: patent publication US12146004B2, “Polymyxin compounds and uses thereof” (priority 2014, dated 2024)
≈ marks a conversion by molar mass, not a printed value. Where two headings read alike, the source gives them in different places. Bridge positions count the residues as written; N and C are the ends. Square brackets hold non-standard residues; d marks the D form. Peptide text beside a SMILES is read from it. * marks the point of attachment. ξ: configuration not given here. dCha = N[C@H](CC1CCCCC1)C(=O)O; Thr(3ξ) = CC(O)[C@H](N)C(=O)O; X1 = CC(C)CN1CCNC[C@H]1C(=O)*; Dab = NCC[C@H](N)C(=O)O

Tests used:
Assay type in all cases: cell-based
[1] = test system: Pseudomonas aeruginosa
Method: (§1) To evaluate the potency and spectrum of the compounds, susceptibility testing was performed against up to nine strains of each of the Gram negative pathogens, Escherichia coli, Pseudomonas aeruginosa, Klebsiella pneumoniae and Acinetobacter baumannii.
(§2) The values in Table 2 are MIC (μg/mL) against strains of E. coli, K. pneumoniae, P. aeruginosa and A. baumanii, including strains which show elevated MICs to Polymyxin.
(§3) The values in Table 2A are MIC (μg/mL).
(§4) The in vitro activity of compounds 26 and C7 (FADDI-02) against resistant bacterial strains was compared. The resistant strains included including Escherichia coli, Pseudomonas aeruginosa, Klebsiella pneumoniae and Acinetobacter baumannii strains. The data is provided in Table 2C, where the strains are identified. The values in Table 2 are MIC (μg/mL).

[2] = test system: Escherichia coli
Method: as §1, §2, §3, §4

[3] = test system: Klebsiella pneumoniae
Method: as §1, §2, §3, §4

[4] = test system: Acinetobacter baumannii
Method: as §1, §2, §3, §4

Row | Structure (SMILES) | MIC P. aeruginosa 068 [1] [µg/mL] | MIC P. aeruginosa 070 [1] [µg/mL] | MIC P. aeruginosa ATCC 27853 [1] [µg/mL] | MIC P. aeruginosa CCUG 59347 [1] [µg/mL] | MIC E. coli 058 [2] [µg/mL] | MIC E. coli 061 [2] [µg/mL] | MIC E. coli ATCC 25922 [2] [µg/mL] | MIC K. pneumoniae 063 [3] [µg/mL] | MIC K. pneumoniae 065 [3] [µg/mL] | MIC K. pneumoniae ATCC 13882 [3] [µg/mL] | MIC A. baumanii 053 [4] [µg/mL] | MIC A. baumanii 056 [4] [µg/mL] | MIC A. baumanii ATCC BAA-747 [4] [µg/mL] | MIC A. baumanii NCTC 13424 [4] [µg/mL] | other results
1 | CC(C)CCC(CCN)C(=O)N[C@H](C(=O)N[C@@H](CN)C(=O)N[C@H]1CCNC(=O)[C@H]([C@@H](C)O)NC(=O)[C@H](CCN)NC(=O)[C@H](CCN)NC(=O)[C@H](CC(C)C)NC(=O)[C@@H](CC2CCCCC2)NC(=O)[C@H](CCN)NC1=O)[C@@H](C)O (single isomer, unassigned; isomer 2) [Example 80, 2-(2-aminoethyl)-5-methylhexanoyl L-Thr-L-Dap-polymyxin [D-cyclohexylalanine-6]heptapeptide. isomer 2] | 2 (≈ 1.8 µM) | 2 (≈ 1.8 µM) | 0.25 (≈ 0.225 µM) | 0.5 (≈ 0.45 µM) | 2 (≈ 1.8 µM) | 8 (≈ 7.2 µM) | 0.125 (≈ 0.113 µM) | 8 (≈ 7.2 µM) | 2 (≈ 1.8 µM) | 0.25 (≈ 0.225 µM) | 64 (≈ 57.6 µM) | 32 (≈ 28.8 µM) | 0.125 (≈ 0.113 µM) | 0.125 (≈ 0.113 µM) | MIC E. coli NCTC 9001 [2]: 0.03 µg/mL (≈ 0.027 µM); MIC K. pneumoniae ATCC 4352 [3]: 0.06 µg/mL (≈ 0.054 µM)
2 | CC(C)C[C@@H]1NC(=O)[C@@H](CC2CCCCC2)NC(=O)[C@H](CCN)NC(=O)[C@@H](NC(=O)[C@H](CN)NC(=O)[C@@H](NC(=O)CC(CN)Cc2ccccc2)[C@@H](C)O)CCNC(=O)[C@H]([C@@H](C)O)NC(=O)[C@H](CCN)NC(=O)[C@H](CCN)NC1=O (single isomer, unassigned; isomer 1) [Example 58, 4-amino-3-benzylbutanoyl L-Thr-L-Dap-polymyxin [D-cyclohexylalanine]-6 heptapeptide. Isomer 1] |  |  |  |  |  |  |  |  |  |  |  |  |  |  | MIC P. aeruginosa 068 ([1]; strain 068): 2 µg/mL (≈ 1.77 µM); MIC P. aeruginosa 070 ([1]; strain 070): 8 µg/mL (≈ 7.08 µM); MIC P. aeruginosa ATCC 27853 ([1]; strain ATCC 27853): 0.25 µg/mL (≈ 0.221 µM); MIC P. aeruginosa CCUG 59347 ([1]; strain CCUG 59347): 0.25 µg/mL (≈ 0.221 µM); MIC E. coli 058 ([2]; strain 058): 4 µg/mL (≈ 3.54 µM); MIC E. coli 061 ([2]; strain 061): 16 µg/mL (≈ 14.2 µM); MIC E. coli ATCC 25922 ([2]; strain ATCC 25922): 0.25 µg/mL (≈ 0.221 µM); MIC E. coli NCTC 9001 ([2]; strain NCTC 9001): 0.125 µg/mL (≈ 0.111 µM); MIC K. pneumoniae 063 ([3]; strain 063): 64 µg/mL (≈ 56.6 µM); MIC K. pneumoniae 065 ([3]; strain 065): 4 µg/mL (≈ 3.54 µM); MIC K. pneumoniae ATCC 13882 ([3]; strain ATCC 13882): 0.25 µg/mL (≈ 0.221 µM); MIC A. baumanii 053 ([4]; strain 053): 64 µg/mL (≈ 56.6 µM); MIC A. baumanii 056 ([4]; strain 056): 64 µg/mL (≈ 56.6 µM); MIC A. baumanii ATCC BAA-747 ([4]; strain ATCC BAA-747): 0.03 µg/mL (≈ 0.0265 µM); MIC A. baumanii NCTC 13424 ([4]; strain NCTC 13424): 0.125 µg/mL (≈ 0.111 µM)
3 | CC(C)C[C@@H]1NC(=O)[C@@H](CC2CCCCC2)NC(=O)[C@H](CCN)NC(=O)[C@@H](NC(=O)[C@H](CCN)NC(=O)[C@@H](NC(=O)[C@@H]2CNCCN2CC(C)C)C(C)O)CCNC(=O)[C@H]([C@@H](C)O)NC(=O)[C@H](CCN)NC(=O)[C@H](CCN)NC1=O (stereo partly drawn) [Example 52, (S)-1-isobutylpiperazine-2-carbonyl polymyxin [D-cyclohexylalanine]-6 nonapeptide] (X1-[Thr(3ξ)][Dab][Dab][Dab][dCha]L[Dab][Dab]T; lactam 3-C) | 16 (≈ 14.1 µM) | 16 (≈ 14.1 µM) | 0.5 (≈ 0.44 µM) | 1 (≈ 0.879 µM) | 8 (≈ 7.03 µM) | 16 (≈ 14.1 µM) | 0.25 (≈ 0.22 µM) | 64 (≈ 56.3 µM) | 8 (≈ 7.03 µM) | 0.25 (≈ 0.22 µM) | >64 | >64 | 0.25 (≈ 0.22 µM) | 0.25 (≈ 0.22 µM) | 
